Numbers after ± are expanded uncertainties.
Settings: Liquid, Closed cell (Static) method

SMILES | vapor or sublimation pressure (283.15 K) | vapor or sublimation pressure (293.15 K) | vapor or sublimation pressure (303.15 K) | vapor or sublimation pressure (313.15 K) | vapor or sublimation pressure (323.15 K)
C=C(F)C(F)(F)F [2,3,3,3-tetrafluoro-1-propene] | 437.9 ± 1.2 kPa | 591.5 ± 1.3 kPa | 782.9 ± 1.5 kPa | 1018.2 ± 1.8 kPa | 1302.4 ± 2.1 kPa
CCF [fluoroethane] | 601.2 ± 1.3 kPa | 805.6 ± 1.5 kPa | 1058.8 ± 1.8 kPa | 1365.8 ± 2.2 kPa | 1735.2 ± 2.7 kPa

Reference: the NIST ThermoML archive (doi:10.1016/j.fluid.2015.02.014)
